One may read the EC50 as the concentration at which the effect is half-maximal. Read a low EC50 as an effect from little substance.

Where only a bound is given, the exact number is not on record here.

These results are taken from patent US12491160B2, “Formulations of a farnesoid X receptor agonist” (ELI LILLY AND COMPANY, priority 2020, dated 2025).

The target of one series is T1, hFXR (Homo sapiens, UniProt Q96RI1).
T1 construct: expressed in transfected cells; host or cells: CV-1 cells
T1 sequence (Q96RI1 1-486): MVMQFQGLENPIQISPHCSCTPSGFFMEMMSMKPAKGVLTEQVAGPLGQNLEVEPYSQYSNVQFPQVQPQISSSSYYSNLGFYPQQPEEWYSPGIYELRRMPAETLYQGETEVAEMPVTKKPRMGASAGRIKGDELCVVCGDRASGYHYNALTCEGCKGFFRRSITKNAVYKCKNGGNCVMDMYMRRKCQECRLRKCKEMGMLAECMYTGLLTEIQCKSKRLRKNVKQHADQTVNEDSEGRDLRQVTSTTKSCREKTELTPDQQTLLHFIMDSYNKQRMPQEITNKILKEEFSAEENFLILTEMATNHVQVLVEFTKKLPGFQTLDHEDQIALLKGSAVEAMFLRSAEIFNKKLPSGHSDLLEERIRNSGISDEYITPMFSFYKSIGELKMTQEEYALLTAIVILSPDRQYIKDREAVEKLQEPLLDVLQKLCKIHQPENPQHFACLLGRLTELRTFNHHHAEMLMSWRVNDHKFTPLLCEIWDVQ
T1 sequence (P19793 1-462 partner): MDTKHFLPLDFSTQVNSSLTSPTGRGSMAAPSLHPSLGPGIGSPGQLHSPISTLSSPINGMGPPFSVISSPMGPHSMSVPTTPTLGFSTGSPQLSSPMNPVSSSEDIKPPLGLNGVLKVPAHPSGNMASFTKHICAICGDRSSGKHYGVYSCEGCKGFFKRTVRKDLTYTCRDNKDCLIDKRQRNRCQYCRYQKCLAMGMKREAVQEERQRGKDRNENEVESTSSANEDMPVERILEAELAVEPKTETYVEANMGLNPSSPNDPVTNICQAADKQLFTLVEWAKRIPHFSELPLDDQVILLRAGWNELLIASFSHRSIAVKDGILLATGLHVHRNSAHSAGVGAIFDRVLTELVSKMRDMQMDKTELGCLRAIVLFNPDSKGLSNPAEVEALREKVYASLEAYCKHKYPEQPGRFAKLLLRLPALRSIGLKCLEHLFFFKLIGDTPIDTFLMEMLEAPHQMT
Kind of series: In Vitro FXR Assay (TK). It is filed as cell-based. Conditions: transfected CV-1 cells (hFXR, hRXR, TK-ECRE-luc), 18 hrs incubation, luminescence. The method, then: CV-1 cells were seeded at a density of 2,000,000 cells in a T175 flask with DMEM+10% charcoal double-stripped FBS and incubated at 37° C. in 5% CO2 for 18 h (O/N).
After 18 h of incubation, the medium in the T175 flask was changed with fresh DMEM+10% charcoal super-stripped serum. In a polypropylene tube, 2500 μL OptiMEM (Life Technologies, Cat #31985-062) was combined with expression plasmids for hFXR, hRXR, TK-ECRE-luc and pCMX-YFP. The tube was then briefly vortexed and incubated at room temperature for 5 minutes. Transfection reagent (X-tremeGENE HP from Roche, Cat #06 366 236 001) was added to the OptiMEM/plasmid mixture vortexed and incubated at room temperature for 20 minutes. Following incubation, the transfection reagent/DNA mixture complex was added to cells in the T175 flask and the cells were incubated at 37° C. in 5% CO2 for 18 h (O/N).
Compound 1 was serially diluted in DMSO and added to transfected CV-1 cells. The cells were then incubated for 18 hrs. The next day cells were lysed and examined for luminescence. Compound 1 TK hFXR: EC50≤0.01 μM.

The target in another series is T2, FXR (Homo sapiens, UniProt Q96RI1).
T2 sequence (Q96RI1 1-486): T1 sequence (Q96RI1 1-486)
As to conditions: published clinical studies, higher administered doses; cited from earlier work.

In turn, `COc1ccc(C23CCC(CN(c4cc(-c5cnn(C(C)(C)C)c5)ccn4)C(=O)[C@H]4CC[C@H](OC(=O)N5CC(O)C5)CC4)(CC2)CC3)cc1C` [Compound 1, 4-((4-(1-(tert-butyl)-1H-pyrazol-4-yl)pyridin-2-yl)((4-(4-methoxy-3-methylphenyl)bicyclo[2.2.2]octan-1-yl)methyl)carbamoyl)cyclohexyl 3-hydroxyazetidine-trans-1-carboxylate] yielded an EC50 on hFXR not above 10 nM.
As for `CC[C@H]1[C@@H](O)[C@@H]2[C@H](CC[C@]3(C)[C@@H]([C@H](C)CCC(=O)O)CC[C@@H]23)[C@@]2(C)CC[C@@H](O)C[C@@H]12` [OCA, Obeticholic acid], the adverse side effects entry at FXR is “adverse side effects at higher administered doses, such as pruritis, increased LDL cholesterol and liver toxicity”.
